In one series the test system is CsgE. The series is described as follows: Pulldown assay of different parts of CsgA with CsgE. The format is binding, E. coli. To be noted: C-terminal MBP tag on CsgA parts.
Series [1] deals with PapD2 and CpxP passage through CsgG. Conditions: cited from earlier work. From the text: Tyr51, Asn55, and Phe56 residues of CsgG were reported to constitute three stacked concentric rings to form a pore structure in the nonameric channel, which was essential to limit the passage of the folded proteins[22] (Fig. 2a).
Series [2] deals with CsgA. Conditions: CsgF and CsgB as baits (N-terminal MBP tag), CsgA C-terminal MBP tag. On the procedure:
The cells were induced with 0.5 mM IPTG for 4 h at 37 °C. […] After incubation for 20 min, the mixture was loaded to a Strep-Tactin column (IBA). The beads were washed four times with a buffer having 25 mM Tris-HCl at pH 8.0, 150 mM NaCl, and eluted in a buffer having 25 mM Tris-HCl at pH 8.0, 150 mM NaCl, and 2.5 mM desthiobiotin. […] The samples were analyzed by 15% SDS–PAGE and detected by western blotting.

Series [3] deals with CsgG. Description: Pulldown assay of CsgF variants/domains with CsgG as bait. The class given is binding, E. coli K12. Conditions: CsgF variants with C-terminal MBP tag. How it is done:
The procedure of CsgG purification was similar to that of the CsgFG complex. […] After incubation for 30 min, the mixture was loaded into a Strep-Tactin column (IBA). […] Individual CsgG and CsgF variants were purified as input by Strep-Tactin and Ni-NTA, respectively. The samples were analyzed by 15% SDS–PAGE and stained with Coomassie blue.
CsgFGBD-MBP mutant variants were purified as soluble protein by Ni-NTA. CsgG were purified as membrane protein by Strep-Tactin and substituted by amphipole A8-35. CsgFGBD-MBP mutant variants (36 μM) and CsgG nonamer (2 μM) were mixed together at 4 °C for 2 h and then incubated with equal volume of Strep-Tactin beads at 4 °C for 1 h.
Supplementary Figure 5. Interaction mode between CsgFN and CsgG. a, Interaction of CsgFN and CsgG. […] Two adjacent subunits of CsgG are shown in magenta and cyan, respectively. b, Hydrogen bonds and electrostatic interaction between CsgFN and CsgG. Hydrogen bonds are shown as red […]
aromatic residues in CsgG. d, The hydrophobic interaction between CsgFN and CsgG. e, Pulldown assay between the CsgF(C-terminal MBP tag) mutant variants and CsgG. […] Source data are provided as a Source Data file.
(§1) (1 picture or pasted object on this page, not shown here)

Series [4] concerns CsgB. To be noted: cited from earlier work. From the text:
CsgFC was flexible, and was observed as fuzzy densities on the extracellular side of the CsgFG channel (Fig. 1c and Supplementary Fig. 1d), which should be responsible for interacting with CsgB. To further clarify CsgF function, we first performed a pulldown assay using CsgG as a bait. […] Therefore, CsgF ...

In series [5] the test system is CsgB. The series is described as follows: Pulldown assay of CsgB by CsgF domains. The format is binding, E. coli. To be noted: CsgB C-terminal MBP tag, CsgF parts N-terminal MBP tag; western blot.
Another series has as its target T1, CsgG nonamer (Escherichia coli, UniProt P0AEA2).
T1 construct: made in house; host or cells: E. coli BL21 (DE3)
T1 sequence (P0AEA2 whole entry, looked up): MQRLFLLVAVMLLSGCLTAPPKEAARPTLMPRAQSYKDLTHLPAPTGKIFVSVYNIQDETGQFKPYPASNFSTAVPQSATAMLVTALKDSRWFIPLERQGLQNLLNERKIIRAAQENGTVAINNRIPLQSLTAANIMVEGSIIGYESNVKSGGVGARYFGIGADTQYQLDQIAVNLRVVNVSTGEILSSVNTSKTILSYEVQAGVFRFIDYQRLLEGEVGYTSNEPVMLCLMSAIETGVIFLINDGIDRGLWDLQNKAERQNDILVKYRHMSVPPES
The class given is binding, E. coli K12. To be noted: given in reply to Reviewer #1.
Excerpt: as §1
are provided as a Source Data file.

Series [6] relates to CsgG. Description: Pulldown assay of CsgE with CsgG. The class given is binding, E. coli. To be noted: western blot. On the procedure: The CsgE and CsgG were transformed in E. coli BL21 (DE3) strain. […] After incubation for 30 min, CsgE alone and CsgE-CsgG mixture were loaded to Strep-Tactin columns (IBA), respectively. The beads were washed for four times with a buffer having 25 mM Tris pH 8.0, 150 mM NaCl and 0.02% DDM and then eluted by an elution buffer (25 mM Tris pH 8.0, 150 mM NaCl, 0.02% DDM and 25 mM desthiobiotin). […] The samples were analyzed using 15% SDS–PAGE and detected using western blotting.

Series [7] relates to CsgA. To be noted: cited from earlier work.
The target in series [8] is T2, Wild-type CsgG (expressed alone) (E. coli K12, UniProt P0AEA2 16-277).
T2 chain: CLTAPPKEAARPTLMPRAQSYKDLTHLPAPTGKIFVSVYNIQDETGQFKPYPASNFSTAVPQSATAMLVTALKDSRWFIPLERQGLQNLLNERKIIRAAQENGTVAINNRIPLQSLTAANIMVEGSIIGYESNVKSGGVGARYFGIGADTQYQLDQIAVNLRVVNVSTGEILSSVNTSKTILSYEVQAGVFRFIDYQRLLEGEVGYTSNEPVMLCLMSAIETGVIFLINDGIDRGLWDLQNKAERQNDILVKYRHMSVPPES
Description: ITC.

Series [9] concerns the target T3, Wild-type CsgG (expressed alone) (E. coli K12, UniProt P0AEA2 16-277).
T3 construct: also called CsgG nonamer; nonameric CsgG
T3 sequence (looked up): T2 chain
The series is described as follows: ITC; MicroCal ITC200, 25 °C; nonameric CsgG in amphipole A8-35 in the cell (2 or 10 μM), CsgFN-MBP (200 μM), CsgAN6 peptide (1 mM) or PeptideN (60 µM) in the syringe; 10 mM HEPES pH 7.5, 50 mM NaCl. To be noted: both partners purified.

Entries after “also recorded” stand apart in the source; their conditions may differ.

In the case of “CsgAR1-5: five C-terminal repeating units of CsgA”, in the series with CsgE, the “interaction of CsgA part with CsgE in pulldown” value is “CsgE bound to CsgAR1-5”.
For the molecule “CsgF: soluble accessory factor of the curli secretion system”, in series [1], the “leakage of PapD2 and CpxP in the presence of CsgF” value was “considerably reduced leakage”. Also, the “interaction with CsgA in pulldown” value in the series on CsgA [2] was “did not directly interact with CsgA”. Besides, the “CsgF-CsgG interaction in pulldown” value with CsgG [3] is “CsgG can pulldown both the full-length CsgF and CsgFN”. The “binding to CsgB” value in the series on CsgB [4] is reported as “can also bind to CsgB”. Further, in the series with CsgB [5], the “pulldown of CsgB” value was “full-length CsgF and CsgFC could”.

B1: CsgE: soluble accessory factor that binds CsgG (protein)
chain: VEVEVPGLLTDHTVSSIGHDFYRAFSDKWESDYTGNLTINERPSARWGSWITITVNQDVIFQTFLFPLKRDFEKTVVFALIQTEEALNRRQINQALLSTGDLAHDEF
modifications: left off: His tag (from the Ni-NTA purification of the input), end not stated, state not stated
As to B1, the “CsgE-CsgG ITC interaction strength (in words)” value with CsgG nonamer is reported as “mM level”. Besides, the “interaction of CsgE with CsgG in pulldown” value in the series with CsgG [6] is reported as “CsgG could pull-down CsgE; also recorded: interacts with the CsgG channel”. Moreover, the “inhibition of CsgA self-assembly into amyloid fibers” value in the series on CsgA [7] is “inhibit self-assembly of CsgA into amyloid fibers”.

B2: PeptideN_(N17R) (peptide)
peptide: GTMTFQFRNPNFGGNPR
notes: source: synthetic peptide
On to B2, for which the affinity in [8], expressed as Kd, was 14.1 nM. The binding result in [9] was “binds”.

The values above are taken from paper PMC6957492, “Assembly and substrate recognition of curli biogenesis system” (Nature Communications, 2020).
